Measurements from patent publication US10233195B2, “Anti-fibrotic pyridinones” (InterMune, Inc., priority 2014, dated 2019).

Key:
[1] = tested on: TGF-b induced Endothelin-1 production; experiment: ET-1 assay: inhibitory effect on TGF-b induced endothelin-1 production; type: cell-based; conditions: Homo sapiens, Fibroblast; fibroblasts, stimulant (TGFb, serum, LPA etc), ET-1 in media by ELISA, 4-parameter fit
In short: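 Fibroblasts (primary human lung/dermal, HFL-1, 3T3) serum-starved 0-48 h, preincubated ~30 min with compound, then stimulated (TGFb, serum or LPA) for 16-48 h. Secreted ET-1 measured by ELISA; EC50 from 4-parameter logistic fit, with CC50 from ATPlite in the same wells.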

[2] = tested on: Fibroblasts (primary human lung and dermal, HFL-1, 3T3 etc); experiment: Cell proliferation assay (BrdU incorporation); type: cell-based; conditions: HFL1, stimulant (LPA, TGFb, serum etc), 50% inhibition of the increase of BrdU incorporation
Method: Assay of Inhibitory Effect on Cell Proliferation (BrdU Incorporation)
Fibroblasts (primary human lung and dermal, HFL-1, 3T3 etc) were plated on a 96-well plate and serum starved for 24-48 hours. The media were then exchanged for media containing stimulants (LPA, TGFb, serum etc) and cultured further for 16-24 hours before BrdU addition. After culturing for another 8 hours, cells were washed with PBS and the amount of BrdU incorporated into the cells was assayed by absorbance at 450 nm using the Cell proliferation ELISA system (RPN250, Amersham LIFE SCIENCE). The difference between the amount of BrdU incorporated in the stimulant-added well and the amount of BrdU incorporated in the well containing no stimulant represented the amount of BrdU incorporation accelerated by stimulant. The increase of BrdU incorporation without the addition of test compounds was set as 100% and the concentration of compound with 50% inhibition in the increase of BrdU incorporation (IC50 value) was determined. The test compounds were added 0-30 min before stimulant addition.
Compounds of some embodiments were prepared according to synthetic methods described herein and assay data obtained for IC50 for BrdU inhibition. The assay data obtained is presented in Table 3, in which A=less than 50 μM, B=greater than or equal to 50 μM and less than or equal to 200 μM; and C=greater than 200 μM.

Row | Structure (SMILES) | EC50 [1] | IC50 [2]
1 | O=c1c2nccnc2c(-c2cn[nH]c2)cn1-c1ccc(Cl)cc1 [Compound 399] | > 200 µM | < 50 µM
2 | O=c1c2nccnc2c(-c2cn[nH]c2)cn1-c1ccc(OC(F)(F)F)cc1 [Compound 400] | < 50 µM | < 50 µM
3 | Cn1cc(-c2cn(-c3ccc(OC(F)(F)F)cc3)c(=O)cc2C#N)cn1 [Compound 402] | < 50 µM | > 200 µM
4 | CCOc1ccc(-n2cc(-c3cnn(C)c3)c(Oc3ccccc3)cc2=O)c(C)c1 [Compound 403] | < 50 µM | < 50 µM
5 | Cn1cc(-c2cn(-c3ccc(OC(F)(F)F)cc3)c(=O)cc2NCc2ccc(F)cc2F)cn1 [Compound 404] | < 50 µM | < 50 µM
6 | Cn1cc(-c2cn(-c3ccc(OC(F)(F)F)cc3)c(=O)cc2NCc2ccc(Cl)cc2Cl)cn1 [Compound 405] | < 50 µM | < 50 µM
7 | Cn1cc(-c2cn(-c3ccc(OC(F)(F)F)cc3)c(=O)cc2NCc2ccc(Cl)cc2)cn1 [Compound 406] | 50 to 200 µM | < 50 µM
8 | Cn1cc(-c2cn(-c3ccc(OC(F)(F)F)cc3)c(=O)cc2NCc2ccc(F)cc2)cn1 [Compound 407] | < 50 µM | < 50 µM
9 | Cn1cc(-c2cn(-c3ccc(OC(F)(F)F)cc3)c(=O)cc2Oc2ccc(F)cc2)cn1 [Compound 410] | < 50 µM | < 50 µM
10 | Cn1cc(-c2cn(-c3ccc(OC(F)(F)F)cc3)c(=O)cc2NCc2cnccn2)cn1 [Compound 411] | 50 to 200 µM | < 50 µM
11 | Cn1cc(-c2cn(-c3ccc(OC(F)(F)F)cc3)c(=O)cc2Oc2cccc(Cl)c2)cn1 [Compound 413] | < 50 µM | < 50 µM
12 | Cn1cc(-c2cn(-c3ccc(OC(F)(F)F)cc3)c(=O)cc2Oc2ccccc2Cl)cn1 [Compound 414] | < 50 µM | < 50 µM
13 | Cc1cc(=O)n(-c2ccc(OC(F)(F)F)cc2)cc1-c1cccc2c1OC(F)(F)O2 [Compound 415] | < 50 µM | < 50 µM
14 | CCOC(=O)Nc1cccc(-n2cc(-c3ccc(F)cc3)c(C)cc2=O)c1 [Compound 416] | < 50 µM | < 50 µM
15 | Cc1cc(=O)n(-c2cccc(NC(=O)N(C)C)c2)cc1-c1ccc(F)cc1 [Compound 417] | < 50 µM | < 50 µM
16 | Cc1cc(=O)n(-c2ccc(NC(N)=O)cc2)cc1-c1ccc(F)cc1 [Compound 418] | 50 to 200 µM | 50 to 200 µM
17 | CNC(=O)Nc1cccc(-n2cc(-c3ccc(F)cc3)c(C)cc2=O)c1 [Compound 419] | 50 to 200 µM | 50 to 200 µM
18 | Cc1cc(=O)n(-c2ccc(OC(F)(F)F)cc2)cc1-c1ccc2c(c1)OCC(=O)N2 [Compound 424] | 50 to 200 µM | < 50 µM
19 | Cc1cc(=O)n(-c2ccc(OC(F)(F)F)cc2)cc1-c1ccc2c(c1)OCC(=O)N2C [Compound 425] | < 50 µM | < 50 µM
20 | CCn1c(=O)oc2cc(-c3cn(-c4ccc(OC(F)(F)F)cc4)c(=O)cc3C)ccc21 [Compound 430] | < 50 µM | < 50 µM
21 | Cc1cc(=O)n(-c2ccc(Cl)cc2)cc1-c1cn[nH]c1 [Compound 431] | > 200 µM | 50 to 200 µM

Row | Structure (SMILES) | EC50 [1] | IC50 [2]
22 | Cc1cc(=O)n(-c2ccc(Cl)cc2)cc1-c1ccnnc1 [Compound 432] | > 200 µM | 50 to 200 µM
23 | Cn1cc(-c2cn(-c3ccc(OC(F)(F)F)cc3)c(=O)cc2NCc2cncnc2)cn1 [Compound 531] | < 50 µM | < 50 µM
24 | Cn1cc(C2=CN(c3ccc(OC(F)(F)F)cc3)CC=C2Oc2ccc(C(N)=O)cc2)cn1 [Compound 535] | < 50 µM | < 50 µM
25 | Cn1cc(-c2c[nH]c(=O)cc2NCc2ncccn2)cn1 [Compound 542] | < 50 µM | < 50 µM
26 | CCOc1ccc(-n2cc(-c3cnn(C)c3)c(NCc3ccccc3)cc2=O)c(C)c1 [Compound 543] | < 50 µM | < 50 µM
27 | Cn1cc(-c2c[nH]c(=O)cc2NCc2ccccn2)cn1 [Compound 544] | 50 to 200 µM | < 50 µM
28 | O=c1cc(NCc2ccccn2)ccn1-c1ccc(OC(F)(F)F)cc1 [Compound 547] | < 50 µM | < 50 µM
29 | CCOc1ccc(-n2cc(-c3cnn(C)c3)c(OCCOC)cc2=O)c(C)c1 [Compound 550] | < 50 µM | < 50 µM
30 | Cc1cc(=O)n(-c2ccc(OC(F)(F)F)cc2)cc1-c1ccc2oc(=O)[nH]c2c1 [Compound 553] | < 50 µM | < 50 µM
31 | Cc1cc(=O)n(-c2ccccc2NC(N)=O)cc1-c1ccc(F)cc1 [Compound 557] | < 50 µM | < 50 µM
32 | CCn1c(=O)oc2ccc(-c3c[nH]c(=O)cc3C)cc21 [Compound 562] | < 50 µM | < 50 µM
33 | Cc1cc(=O)[nH]cc1-c1ccc2c(c1)OCC(=O)N2C [Compound 563] | < 50 µM | < 50 µM
34 | Cc1cc(=O)[nH]cc1-c1cccc2c1OC(F)(F)O2 [Compound 565] | < 50 µM | < 50 µM
35 | Cc1nc2c(=O)n(-c3ccc(OC(F)(F)F)cc3)cc(-c3cnn(C)c3)c2o1 [Compound 569] | < 50 µM | < 50 µM
36 | Cc1nc2c(=O)n(-c3ccc(OC(F)(F)F)cc3)ccc2o1 [Compound 570] | > 200 µM | > 200 µM
37 | CCOc1ccc(-n2cc(-c3cn[nH]c3)c3nccnc3c2=O)c(C)c1 [Compound 574] | < 50 µM | < 50 µM
38 | O=c1c2nccnc2ccn1-c1ccc(OC(F)(F)F)cc1 [Compound 575] | < 50 µM | < 50 µM
39 | Cn1cc(-c2cn(-c3ccc(OC(F)(F)F)cc3)c(=O)c3scnc23)cn1 [Compound 583] | < 50 µM | < 50 µM
40 | Cn1cc(-c2cn(-c3ccc(OC(F)(F)F)cc3)c(=O)c3[nH]ncc23)cn1 [Compound 588] | > 200 µM | < 50 µM
41 | O=c1c2[nH]ccc2c(-c2ccc(F)cc2)cn1-c1ccc(OC(F)(F)F)cc1 [Compound 591] | < 50 µM | > 200 µM
42 | CCn1ccc2c(-c3ccc(F)cc3)cn(-c3ccc(OC(F)(F)F)cc3)c(=O)c21 [Compound 594] | < 50 µM | < 50 µM

Row | Structure (SMILES) | EC50 [1] | IC50 [2]
43 | CCn1ccc2c(-c3ccc(F)cc3)c[nH]c(=O)c21 [Compound 595] | < 50 µM | 50 to 200 µM
44 | Cn1ccc2c(-c3cn[nH]c3)cn(-c3ccc(C#N)cc3)c(=O)c21 [Compound 600] | < 50 µM | > 200 µM
45 | CCOc1ccc(-n2cc(-c3cn[nH]c3)c3ccn(C)c3c2=O)c(C)c1 [Compound 601] | < 50 µM | < 50 µM
46 | Cn1ccc2c(-c3cn[nH]c3)cn(-c3ccc(OC(F)(F)F)cc3)c(=O)c21 [Compound 602] | < 50 µM | < 50 µM
47 | Cn1cc(-c2cn(-c3ccc(OC(F)(F)F)cc3)c(=O)c3[nH]ccc23)cn1 [Compound 603] | < 50 µM | < 50 µM
48 | O=c1c2[nH]ccc2c(-c2cn[nH]c2)cn1-c1ccc(OC(F)(F)F)cc1 [Compound 604] | < 50 µM | < 50 µM
49 | Cn1cc(-c2cn(-c3ccc(Cl)cc3)c(=O)c3[nH]ccc23)cn1 [Compound 605] | < 50 µM | < 50 µM
50 | O=c1c2[nH]ccc2c(-c2cn[nH]c2)cn1-c1ccc(Cl)cc1 [Compound 606] | < 50 µM | < 50 µM
51 | CCOc1ccc(-n2cc(-c3cn[nH]c3)c3cc[nH]c3c2=O)c(C)c1 [Compound 607] | < 50 µM | < 50 µM
52 | O=c1c2[nH]ccc2ccn1-c1ccc(OC(F)(F)F)cc1 [Compound 609] | < 50 µM | < 50 µM
53 | CCn1ccc2ccn(-c3ccc(OC(F)(F)F)cc3)c(=O)c21 [Compound 610] | < 50 µM | < 50 µM
54 | CCn1ccc2c(-c3cnn(CCO)c3)cn(-c3ccc(OC(F)(F)F)cc3)c(=O)c21 [Compound 615] | < 50 µM | < 50 µM
55 | CCn1cnc2c(-c3cnn(C)c3)cn(-c3ccc(OC(F)(F)F)cc3)c(=O)c21 [Compound 617] | < 50 µM | 50 to 200 µM
56 | CCn1cnc2c(-c3cnn(C)c3)c[nH]c(=O)c21 [Compound 618] | 50 to 200 µM | 50 to 200 µM
57 | CCn1nc2c(-c3cnn(C)c3)cn(-c3ccc(OC(F)(F)F)cc3)c(=O)c2n1 [Compound 619] | < 50 µM | < 50 µM
58 | CCn1nc2c(-c3cn[nH]c3)cn(-c3ccc(OC(F)(F)F)cc3)c(=O)c2n1 [Compound 620] | < 50 µM | < 50 µM
59 | CCn1nnc2c(=O)n(-c3ccc(OC(F)(F)F)cc3)cc(-c3cnn(C)c3)c21 [Compound 624] | < 50 µM | < 50 µM
60 | CCn1nnc2c(-c3cnn(C)c3)cn(-c3ccc(OC(F)(F)F)cc3)c(=O)c21 [Compound 625] | < 50 µM | < 50 µM
61 | CCn1ccc2c(=O)n(-c3ccc(OC(F)(F)F)cc3)cc(-c3ccc(F)cc3)c21 [Compound 626] | < 50 µM | < 50 µM
